Assay results from article PMC11401973, “A novel small molecule ZYZ384 targeting SMYD3 for hepatocellular carcinoma via reducing H3K4 trimethylation of the Rac1 promoter” (MedComm, 2024).

Experiments:
Huh7 cells = experiment: MTT cell viability; assay type: cell-based; conditions: Homo sapiens, Huh-7, 24 h
SMYD3 [1] = experiment: SMYD3 overexpression by transfection in LO2 cells and ZYZ384 treatment; assay type: cell-based, human; conditions: LO2 transfected with SMYD3 OE plasmid, 24 h treatment
Experimental: (§1) The cytotoxicity of ZYZ384 was determined across several different cancer cell lines. 3‐(4,5‐Dimethylthiazol‐2‐yl)‐2,5‐diphenyltetrazolium bromide (MTT) assay was used to assess cell viability. […] The cancer cell lines tested include human liver carcinoma cell HepG2, adenocarcinoma human alveolar basal epithelial cell A549, human colon carcinoma cell HTC116, human breast adenocarcinoma cell MDA‐MB‐231, and human pancreatic adenocarcinoma cell Miapaca2. […] In addition, ZYZ384 had low toxicity when tested in normal liver cells (LO2; Figure 3H).
SMYD3 overexpression (SMYD3 OE) plasmid (Sino Biological) was mixed with lipofectamine 2000 for plasmid transfection. After transfection for 6 h, cells were exposed to the indicated ZYZ384 treatments for another 24 h.

SMYD3 [2] = experiment: SMYD3 expression in tumor tissue (Western blot); assay type: in vivo, nude mice; conditions: ZYZ384 treatment groups versus control group
Experimental: (§2) In order to explore the antitumor mechanism of ZYZ384, the inhibitory effect of ZYZ384 on SMYD3 was determined in tumor tissues. […] In parallel, the expression of H3K4me3 was also noted to decrease in a similar pattern to that of SMYD3 (Figure 5B). The tumor tissues from control and high‐dosage treatment group animals were isolated. Since SMYD3 can tri‐methylated H3K4, ChIP‐seq analysis was used. This method allowed for annotating H3K4me3 occupancy on genes (Figure 5C). Global H3K4me3 occupancy decreased near annotation genes' transcription start site (TSS; Figure 5D). H3K4me3 is often enriched at activated promoters near TSSs. When combined with Kyoto Encyclopedia of Genes and Genomes (KEGG) pathway enrichment analysis (Figure 5E) and Gene Ontology (GO) functional enrichment analysis (Figure 5F), attention focus on the AKT pathway, cell proliferation, and migration functions. Visualized reads and signal strength of H3K4me3 for the Rac1 gene at the promoter region decreased following treatment with ZYZ384 (Figure 5G). […]
(§3) Isolated protein (30 µg) was obtained from tissues, separated on a sodium dodecyl sulfate‐polyacrylamide gel electrophoresis (SDS‐PAGE) gel, and transferred to a polyvinylidene fluoride membrane. […] The immunoreactive protein is visualized by enhanced chemiluminescence, and the signal intensity was detected and quantified using ImageJ.

LO2 cells = experiment: MTT cell viability, normal liver cells; assay type: cell-based, human
Experimental: as §1
(§4) Cell viability was assessed in several cancer cell lines and determined using the MTT assay in a 96‐well plate format. In brief, cells from […] medium (1 × 10^4/well) were inoculated in 96‐well plates and treated with ZYZ384. After 24 h of treatment, cell viability was determined by adding 1 mg/mL MTT‐containing medium for 4 h, followed by […] Dimethyl sulfoxide (DMSO) to dissolve formazan. The absorbance at 570 nm was recorded using a microplate ultraviolet/visible (UV/VIS) spectrophotometer (Tecan).

Miapaca2 cells = experiment: MTT cell viability; assay type: cell-based; conditions: Homo sapiens, MIA PaCa-2, 24 h
Experimental: as §1
(§5) Human HepG2, A549, HCT116, MDA‐MB‐231, and Miapaca2 cells were purchased from American Type Culture Collection (ATCC) and cultured in DMEM medium supplemented with 1% penicillin/streptomycin and 10% FBS at 37°C under 5% CO2 atmosphere and 95% air. Trypsin EDTA was used for cell passage.
as §4

A549 cells = experiment: MTT cell viability; assay type: cell-based; conditions: Homo sapiens, 24 h
Experimental: as §1, §5, §4

HCT116 cells = experiment: MTT cell viability; assay type: cell-based; conditions: Homo sapiens, HCT-116, 24 h
Experimental: as §1, §5, §4

MDA-MB-231 cells = experiment: MTT cell viability; assay type: cell-based; conditions: Homo sapiens; MDA-MB-231, MTT, 24 h
Experimental: as §1, §5, §4

HepG2 cells = experiment: MTT cell viability; assay type: cell-based; conditions: Homo sapiens, 24 h
Experimental: as §1, §5, §4

C57BL/6 mice = experiment: Short-term toxicity study of C57BL/6 mice; assay type: in vivo; conditions: oral
Experimental: The toxicity of ZYZ384 (Figure 4A) was determined using C57BL/6 mice in pilot studies to assess the safety and the maximum‐tolerable dose (MTD) determined (as shown in Figure 4B). No toxicity was reported in C57BL/6 mice orally administrated with 2 g/kg of ZYZ384 one time, and a survival rate of 100% was reached after 2 weeks of treatment. No abnormalities in food and water consumption are reported during this time, nor any unusual spontaneous activities; a reported […] for ZYZ384 >2 g/kg is noted for the current work.
C57BL/6 mice were randomly divided into two groups (n = 10) to determine the short‐term toxicity of ZYZ384. Mice were given the maximum dose of 2 g/kg orally administered ZYZ384 once, while the control group was treated with the same volume of sterilized water. The health conditions of all mice were monitored for 2 weeks.

H3K4me3 = H3K4me3 expression in tumor tissue (Western blot); assay type: in vivo, nude mice; conditions: ZYZ384 treatment groups versus control group
Experimental: as §2, §3

Water solubility = assay type: physicochemical
Text: We were granted a Chinese patent (CN114246851A) to protect the structure and activity of ZYZ384, the effectiveness of ZYZ384 at high concentrations presents a challenge for future clinical use. […] Currently, we are trying to transform it into hydrochloride or culture cocrystallization to improve its solubility, bioavailability, and druggability. Drug resistance and combination therapy of ZYZ384 on other models will be gradually carried out in the follow‐up work. Although we developed a small molecule targeting SMYD3, we still need to figure out whether it is a selective inhibitor, and related research is to be continued.

SMYD3-GST tag protein = target: T1, SMYD3-GST tag protein (Homo sapiens, UniProt Q9H7B4); experiment: Biolayer interferometry (BLI) binding assay; conditions: steady-state analysis, read-out: equilibrium dissociation constant (K D)
T1 construct: purchased BPS Bioscience
T1 sequence (Q9H7B4 1-428): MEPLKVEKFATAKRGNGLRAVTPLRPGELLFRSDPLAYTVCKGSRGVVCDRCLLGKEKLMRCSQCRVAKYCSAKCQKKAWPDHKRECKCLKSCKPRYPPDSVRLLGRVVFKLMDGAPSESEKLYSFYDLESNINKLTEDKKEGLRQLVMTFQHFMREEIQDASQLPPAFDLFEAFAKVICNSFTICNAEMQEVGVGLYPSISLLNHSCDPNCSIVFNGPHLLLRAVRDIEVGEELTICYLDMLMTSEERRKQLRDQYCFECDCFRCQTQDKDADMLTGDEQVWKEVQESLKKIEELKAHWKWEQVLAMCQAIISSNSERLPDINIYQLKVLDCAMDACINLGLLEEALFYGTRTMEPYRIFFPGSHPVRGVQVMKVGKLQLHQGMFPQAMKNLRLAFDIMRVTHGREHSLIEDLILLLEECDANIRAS
Experimental: Next, to test the binding affinity of novel small molecules to SMYD3, BLI analyses were performed to determine the binding affinity of the two series of novel small molecules targeting SMYD3. SMYD3‐glutathione S‐transferase (GST)‐tagged protein was immobilized onto GST biosensors and used to determine the binding affinity of all respective small molecules and labeled probes. The binding and dissociation curves were generated in real time by applying the SMYD3‐GST label proteins onto the biosensor surfaces, followed by monitoring small molecules interaction across several concentrations. […] SMI1 has been renamed ZYZ384 and further tested for anticancer activities using both in vitro and in vivo models.
The SMYD3‐GST tag protein (BPS Bioscience) was immobilized onto a GST biosensor (Fortebio). ZYZ384 was tested across the concentrations range of 6.25–200 µM. After baseline setup using Phosphate buffer saline (PBS), the biosensor tips were immersed in wells containing ZYZ384 continuous diluent for 180 s to combine, followed by a 180‐s dissociation step. They calculated K D value with a 1:1 model in data analysis software 9.0 (Fortebio).

HepG2 tumors = experiment: HepG2 tumor-bearing nude mouse model (CDX); assay type: in vivo, nude mice
Experimental: The in vivo antitumor effect of ZYZ384 was assessed using a HepG2 tumor‐bearing nude mouse model (cell‐derived xenograft, CDX; Figure 4D).
The tumor‐bearing nude mice model was established by direct injection of hepG2 cells into the left armpit of nude mice. Animals were subsequently divided into five groups (n = 7). All compounds were applied via intragastric administration, and sorafenib was used as the positive control. Other groups, except the control group, were treated with different concentrations of ZYZ384. Body weight and tumor volume were monitored and recorded throughout the treatment period.

SMYD3 [3] = target: T2, SMYD3 (Homo sapiens, UniProt Q9H7B4); experiment: SMYD3 homogeneous assay kit (AlphaELISA); assay type: biochemical; conditions: different concentrations, 3 h incubation
T2 construct: purchased BPS Bioscience
T2 sequence (Q9H7B4 1-428): T1 sequence (Q9H7B4 1-428)
Experimental: The homogeneous assay kit was used to evaluate ZYZ384 inhibition activity on SMYD3. As we know, SMYD3 can catalyze the di‐ and tri‐methylation status of lysine4 of histone H3. This protein is also reported to drive the methylation of a lysine residue present in the protein […] (MAP3K2). Therefore, a series of different concentrations of ZYZ384 were incubated with SMYD3, and the activity was determined using the kit.
The commercial SMYD3 homogenous assay kit is designed to detect SMYD3 activity for screening and analytical applications. The SMYD3 homogenous assay kit is available in a convenient AlphaELISA format with GST‐labeled SMYD3 substrate, primary antibody, methylation detection buffer, and purification of SMYD3 for 384 enzyme reactions. The key to the SMYD3 homogenous assay is a particular antibody that recognizes methylated substrates. Using the kit, methyltransferase can be detected in three simple steps on a microtitration plate. First, samples containing the SMYD3 enzyme and ZYZ384 in different dosages were incubated in substrates for 3 h. Next, the receptor bead and primary antibody are added, the donor bead is added, and the Alpha counts are recorded.

COc1ccc(/N=C2/c3ccccc3/C(=N/c3ccc(OC)cc3)C2(C)C)cc1 [ZYZ384, (1Z,3Z)-N1,N3-bis(4-methoxyphenyl)-2,2-dimethyl-1H-indene-1,3(2H)-diimine]
IC50 (Huh7 cells): 5.45 µM
SMYD3 overexpression (SMYD3 [1]): suppressed
SMYD3 expression in tumor tissues (SMYD3 [2]): significantly diminished
IC50 (LO2 cells; Homo sapiens, L02, LO2 normal liver cells, MTT, 24 h): 26.7 µM
toxicity in normal liver cells (LO2 cells; LO2): low toxicity
IC50 (Miapaca2 cells): 13.8 µM
IC50 (A549 cells): 20.7 µM
IC50 (HCT116 cells): 15.2 µM
IC50 (MDA-MB-231 cells): 7.28 µM
IC50 (HepG2 cells): 5.23 µM
LD5 (C57BL/6 mice): > 2000 mg/kg
toxicity (C57BL/6 mice; 2 g/kg one time, 2 weeks observation): No toxicity
survival rate (C57BL/6 mice; 2 g/kg, after 2 weeks): 100%
expression of H3K4me3 in tumor tissues (H3K4me3): decrease
water solubility (Water solubility): poor water solubility
Kd (SMYD3-GST tag protein): 78 µM
body weight changes during treatment (HepG2 tumors; HepG2 tumor-bearing nude mice): no noticeable body weight changes
growth suppression in HepG2 tumors (HepG2 tumors; nude mice, 100 mg/kg intragastric, versus sorafenib 100 mg/kg): better than that of sorafenib
SMYD3 activity (alpha counts) (SMYD3 [3]): inhibits SMYD3 in a concentration‐dependent manner
